# Laboratory results as given in PMC4885110, “Structure-Based Design of an in Vivo Active Selective BRD9 Inhibitor” (Journal of Medicinal Chemistry, 2016).
# Tests used:
# U2OS cells = assay: Toxicity in U2OS cells; assay type: cell-based; conditions: after 24 h
# Method: Figure 4 FRAP assay using U2OS cells transfected with GFP–BRD9. (a) Recovery half times of wild-type (wt) cells treated with DMSO in the absence or presence of 2.5 μM SAHA or treated with 1 at 1 μM and SAHA as indicated. In addition, cells expressing GFP–BRD9 with a BD-inactivating mutation (N100F) were analyzed. Significant differences relative to cells treated with SAHA (p < 0.0001) are shown by ****. (b) Time dependence of fluorescence recovery in the bleached area of cells expressing wt or mutant GFP–BRD9 with the corresponding treatments shown in (a). (c) Recovery half times of cells expressing wt GFP–BRD9 treated with various concentrations of DMSO and 2 in the presence or absence of SAHA as indicated. Cells expressing the GFP–BRD9 mutant (N100F) were treated as indicated. Significant differences relative to cells treated with SAHA (p < 0.0001) are shown by ****. (d) Time dependence of fluorescence recovery in the bleached area of cells expressing wt or mutant GFP–BRD9 with the corresponding treatments shown in (c). Curves represent averaged data of at least 20 replicates. […] The N100F construct is a negative control BRD9 mutant in which Asn100 is replaced by Phe100 and therefore acetylated histone cannot bind because of the lack of interaction to the anchor Asn and because of steric hindrance. […]
# Aqueous solubility = assay type: physicochemical; conditions: aqueous McIlvaine buffer, pH 6.8
# Method: (§1) this tumor mouse model body weight changes can occur due to increased tumor load or due to […]
# (§2) Determination of physicochemical and in vitro DMPK parameters […]
# (§3) diluted with aqueous McIlvaine buffer at pH 6.8, or with acetonitrile/water (1:1) as a reference. Samples were shaken for 24 h at room temperature in 96-well plates (Whatman Uniplate® 96 wells, 750 µL, polypropylene, round bottom). The plate was then centrifuged at 3,000 rpm for 2 min. 250 µL of each sample were transferred to a Millipore MultiScreenHTS filter plate with a polycarbonate membrane, pore size 0.45 μm. Filtrates were collected by centrifugation at 3,000 rpm for 2 min. The dissolved concentrations were determined by UPLC/UV on a Waters ACQUITY UPLC® SQD system equipped with a Waters ACQUITY UPLC® BEH 2.1x50 mm C18 column, particle size 1.7 µm, using a short gradient with water/0.1% formic acid as solvent A and acetonitrile/0.1 % formic acid as solvent B (5 to 95 % B with 1.7 min total cycle time). Compound signals were measured with a photodiode array UV detector operated at 254 nm. Solubility was determined with a one point calibration by comparing peak areas relative to the reference standard using Waters Empower software. […]
# [1] = Hepatocytes predicted clearance, mouse; assay type: in vitro ADME
# Method: as §1, §2, §3
# (§4) In vitro plasma protein binding (PPB) was determined by a semi-automated equilibrium dialysis assay on a Tecan robotic system at a test compound concentration of 3 µM. […]
# [2] = Hepatocytes predicted clearance, rat; assay type: in vitro ADME
# Method: as §1, §2, §3, §4
# [3] = Hepatocytes predicted clearance, human; assay type: in vitro ADME
# Method: as §1, §2, §3, §4
# [4] = assay type: in vivo; conditions: Mouse 5 mg/kg i.v. bolus
# Text: Mice were housed under pathogen-free conditions (AAALAC accredited facility) and treated according to the institutional, governmental and European Union guidelines (GV-SOLAS, Felasa, Austrian Animal Protection Laws). All animal studies were reviewed and approved by the internal ethics committee of Boehringer Ingelheim and the local governmental committee (Amt der Wiener Landesregierung, Magistratsabteilung 58, Vienna, Austria).
# Pharmacokinetic and efficacy studies in mice […]
# Following injection of the cells animals were randomized based on body weight (n=10/group). […] All doses were calculated relative to the mouse body weight on the treatment day. […]
# body weight loss. Tumour load was measured 2-3 times weekly based on bioluminescence imaging as described previously. […]
# 1x10^6 cells/mL were incubated and continuously shaken in a Thermo Scientific Cytomat™ for 4 h at 85-95% relative humidity and 5-10% CO2 at 37 °C. Aliquots were taken from the medium at 0, 0.5, 1, 1.5, 2.5 und 4 h and concentrations of the test compounds quantified by HPLC/MS/MS on a BIOCIUS Life Sciences RapidFire® system coupled to a Thermo Scientific™ TSQ Vantage™ triple-quadrupole mass spectrometer. Predicted clearances were calculated using the well-stirred model.
# as §4
# [5] = 1 week tolerability study in non-tumor-bearing CIEA-NOG mice; assay type: in vivo; conditions: 180 mg/kg, continuous daily dosing, female CIEA-NOG mice
# [6] = Disseminated EOL-1 AML mouse model; assay type: in vivo; conditions: female, CIEA-NOG, po, 180 mg/kg p.o., plasma, last day of treatment
# [7] = parameters: method as in earlier work; conditions: cited from earlier work
Compound,toxicity in U2OS cells (U2OS cells),solubility at 24 h (Aqueous solubility),Hepatocytes pred. CL mouse [1],Hepatocytes pred. CL rat [2],Hepatocytes pred. CL human [3],plasma CL [4],tolerability [5],AUC(0-t) [6],membrane permeability [7]
"COc1cc(-c2cn(C)c(=O)c3cnccc23)cc(OC)c1CN(C)C [Compound 1, n1cc2c(cc1)C(=CN(C2=O)C)c1cc(c(c(c1)OC)CN(C)C)OC]",no toxicity,> 91 µg/mL,58 % QH,< 7 % QH,17 % QH,57% QH,,,
"COc1cc(-c2cn(C)c(=O)c3cnccc23)c(OC)cc1CN(C)C [Compound 2, 4-{4-[(Dimethylamino)methyl]-2,5-dimethoxyphenyl}-2-methyl-1,2-dihydro-2,7-naphthyridin-1-one]",no toxicity,> 90 µg/mL,56 % QH,17 % QH,17 % QH,65% QH,well-tolerated,268 µM·h,
CCn1cc(-c2cccc(C(F)(F)F)c2)c2sc(C(=N)NC3CCS(=O)(=O)CC3)cc2c1=O [I-BRD9],,,,,,,,,210 nM/s
